In ChEMBL document CHEMBL5550179, “Rutaecarpine-inspired scaffold-hopping strategy and Ullmann cross-coupling based synthetic approach: Identification of pyridopyrimidinone-indole based novel anticancer chemotypes” (Bioorg Med Chem, 2024):
Activity calls are given as the source filed them. The calls are words filed in the database; no cut-off is given here.

Legend:
HeLa = assay: Antiproliferative activity against human HeLa cells; format: functional, cell-based
MCF7 [1] = assay: Antiproliferative activity against human MCF7 cells assessed as cell growth inhibition incubated for 48 hrs by MTT assay; format: functional, cell-based; details: for IC50: Homo sapiens, MCF7, 48 h
A549 [2] = assay: Antiproliferative activity against human A549 cells assessed as cell growth inhibition incubated for 48 hrs by MTT assay; format: functional, cell-based; details: A549, 48 h
[3] = Antiproliferative activity against human MCF-10A cells assessed as cell growth inhibition incubated for 48 hrs by MTT assay; format: toxicity, cell-based
[4] = Antiproliferative activity against human MCF-10A cells assessed as cell viability incubated for 48 hrs by MTT assay relative to control; format: toxicity, cell-based; design: concentration or dose not given beside the values; details: read-out: Activity
[5] = Selectivity index, ratio of IC50 for antiproliferative activity against human MCF-10A cells to IC50 for antiproliferative activity against human MCF7 cells; format: toxicity, cell-based; details: MCF-10A cells and MCF7 cells, read-out: Ratio IC50
MCF7 [6] = assay: Antiproliferative activity against human MCF7 cells; format: functional, cell-based
A549 [7] = assay: Antiproliferative activity against human A549 cells; format: functional, cell-based
MGC-803 = assay: Antiproliferative activity against human MGC-803 cells; format: functional, cell-based
SW480 = assay: Antiproliferative activity against human SW480 cells; format: functional, cell-based
HCT-116 [8] = assay: Antiproliferative activity against human HCT-116 cells assessed as cell growth inhibition incubated for 48 hrs by MTT assay; format: functional, cell-based; details: HCT-116, 48 h
MCF7 [9] = assay: Antiproliferative activity against human MCF7 cells assessed as reduction in number of colonies incubated for 48 hrs by crystal violet staining based analysis; format: functional, cell-based
MCF7 [10] = assay: Inhibition of cell migration in human MCF7 cells assessed as reduction in migration rate incubated upto 48 hrs by scratch wound healing assay; format: functional, cell-based
HL-60 = assay: Antiproliferative activity against human HL-60 cells; format: functional, cell-based
NCI-H460 = assay: Antiproliferative activity against human NCI-H460 cells; format: functional, cell-based
MDA-MB-435 = assay: Antiproliferative activity against human MDA-MB-435 cells; format: functional, cell-based
HCT-116 [11] = assay: Antiproliferative activity against human HCT-116 cells; format: functional, cell-based
Tubulin = assay: Inhibition of tubulin polymerization (unknown origin); format: protein-complex assay, Homo sapiens
ACHN = assay: Antiproliferative activity against human ACHN cells; format: functional, cell-based

For `O=c1c2ccccc2nc2n1CCc1c-2[nH]c2ccccc12` [RUTAECARPINE], the IC50 (HeLa) was 26 µM, the IC50 (MCF7 [1]) was greater than 20 µM and the IC50 (A549 [2]) was greater than 20 µM. It also gave an IC50 at 48 h [3] greater than 20 µM, a viability at 48 h [4] of 60.2% and a selectivity ratio [5] of 1.2.
Compound `O=c1cc(-c2ccc(Cl)cc2)nc2ccccn12` has an IC50 (MCF7 [6]) of 1.8 µM.
Work on `COc1ccc2[nH]c(-c3cc(=O)n4ccccc4n3)c(CCNC(=O)c3cc(OC)c(OC)c(OC)c3)c2c1` yielded an IC50 (MCF7 [1]) greater than 20 µM.
Work on `COc1ccc2c(c1)c(CCN1C(=O)c3ccccc3C1=O)c(-c1cc(=O)n3ccccc3n1)n2C(=O)OC(C)(C)C` yielded an IC50 (MCF7 [1]) greater than 20 µM.
Work on `CN1c2ccccc2C(=O)N2CCc3c([nH]c4ccccc34)C21` (centres undefined) yielded an IC50 (A549 [7]) of 1.3 µM, an IC50 (MGC-803) of 12 µM and an IC50 (SW480) of 10 µM.
`COc1ccc(C(=O)NCCc2c(-c3cc(=O)n4ccccc4n3)n(C(=O)OC(C)(C)C)c3ccccc23)cc1` showed an IC50 (MCF7 [1]) of 7.7 µM, an IC50 (A549 [2]) of 18.4 µM and an IC50 (HCT-116 [8]) of 11 µM. For the same compound, the IC50 at 48 h [3] was greater than 20 µM, the viability at 48 h [4] was 61.6% and the selectivity ratio [5] was greater than 3.2. For the same compound, the Activity (MCF7 [9]) was “Active” and the inhibition (MCF7 [10]) was “Active”.
`O=c1c2ccccc2nc2n1CCc1c-2[nH]c2c(Cl)c(Cl)ccc12` showed an IC50 (HL-60) of 0.15 µM.
`COc1cc(C(=O)NCCc2c(-c3cc(=O)n4ccccc4n3)[nH]c3ccccc23)cc(OC)c1OC` gave an IC50 (MCF7 [1]) greater than 20 µM.
With `COc1ccc(C(=O)NCCc2c(-c3cc(=O)n4ccccc4n3)[nH]c3ccc(OC)cc23)cc1` the IC50 (MCF7 [1]) was greater than 20 µM.
With `O=c1[nH]cc(F)c(=O)[nH]1` [FLUOROURACIL] the IC5 (MCF7 [1]; time 48 hrs) was 6.5 µM, the IC50 (A549 [2]) was greater than 20 µM and the IC50 (HCT-116 [8]) was greater than 20 µM. It also gave an IC50 at 48 h [3] of 19.5 µM, a viability at 48 h [4] of 50% and a selectivity ratio [5] of 3.
Compound `O=c1c2cc(Cl)ccc2nc2n1CCc1c-2[nH]c2ccccc12` has an IC50 (HeLa) of 7 µM.
`O=C(NCCc1c[nH]c2ccccc12)c1ccc(-c2ccccc2)cc1` showed an IC50 (NCI-H460) of 2 µM.
With `CC(C)(C)OC(=O)n1c(-c2cc(=O)n3ccccc3n2)c(CCN2C(=O)c3ccccc3C2=O)c2ccccc21` the IC50 (MCF7 [1]) was greater than 20 µM.
In the case of `COc1ccc2[nH]c(-c3cc(=O)n4ccccc4n3)c(CCNC(=O)c3ccc(Cl)cc3)c2c1`, the IC50 (MCF7 [1]) is reported as greater than 20 µM.
`COc1ccc2[nH]c(-c3cc(=O)n4ccccc4n3)c(CCN3C(=O)c4ccccc4C3=O)c2c1` gave an IC50 (MCF7 [1]) greater than 20 µM.
Work on `O=C1c2ccccc2C(=O)N1CCc1c(-c2cc(=O)n3ccccc3n2)[nH]c2ccccc12` yielded an IC50 (MCF7 [1]) greater than 20 µM.
Work on `O=C(O)c1ccccc1C(=O)NCCc1c(-c2cc(=O)n3ccccc3n2)[nH]c2ccccc12` yielded an IC50 (MCF7 [1]) greater than 20 µM.
`CC(C)(C)OC(=O)n1c(-c2cc(=O)n3ccccc3n2)c(CCNC(=O)c2ccc(Cl)cc2)c2ccccc21` gave an IC50 (MCF7 [1]) of 15.8 µM, an IC50 (A549 [2]) greater than 20 µM and an IC50 (HCT-116 [8]) greater than 20 µM. It also gave an IC50 at 48 h [3] greater than 20 µM, a viability at 48 h [4] of 83.4% and a selectivity ratio [5] greater than 2.11.
With `O=C1c2cc(Cl)ccc2SC2c3[nH]c4ccc(O)cc4c3CCN12` (centres undefined) the IC50 (MDA-MB-435) was less than 0.003 µM and the IC50 (HCT-116 [11]) was less than 0.003 µM.
Compound `COc1cc(C2=NN(C(N)=O)C(c3cn(C)c4ccc(Br)cc34)C2)cc(OC)c1OC` (centres undefined) has an IC50 (Tubulin) of 2.12 µM.
`O=C(NCCc1c(-c2cc(=O)n3ccccc3n2)[nH]c2ccccc12)c1ccc(Cl)cc1` gave an IC50 (MCF7 [1]) greater than 20 µM.
In the case of `COc1ccc2c(c1)c(CCNC(=O)c1ccc(Cl)cc1)c(-c1cc(=O)n3ccccc3n1)n2C(=O)OC(C)(C)C`, the IC50 (MCF7 [1]) is reported as 14 µM, the IC50 (A549 [2]) is reported as 20 µM and the IC50 (HCT-116 [8]) is reported as 8.55 µM. For the same compound, the IC50 at 48 h [3] was greater than 20 µM, the viability at 48 h [4] was 78.6% and the selectivity ratio [5] was greater than 2.25.
Compound `CN1c2ccccc2C(=O)N2CCc3c([nH]c4ccc(Cl)cc34)C21` (centres undefined) has an IC50 (MCF7 [6]) of 1 µM and an IC50 (ACHN) of 1 µM.
